Measurements published in ChEMBL document CHEMBL4431332, “Identification and Investigation of Novel Binding Fragments in the Fatty Acid Binding Protein 6 (FABP6)” (J Med Chem, 2016).

Assays:
Gastrotropin = target: T1, Gastrotropin (Homo sapiens, UniProt P51161); test: Binding affinity to recombinant human N-terminal His6 and Avi-tagged FABP6 expressed in Escherichia coli NEB cells by surface plasmon resonance method
T1 sequence (P51161 whole entry): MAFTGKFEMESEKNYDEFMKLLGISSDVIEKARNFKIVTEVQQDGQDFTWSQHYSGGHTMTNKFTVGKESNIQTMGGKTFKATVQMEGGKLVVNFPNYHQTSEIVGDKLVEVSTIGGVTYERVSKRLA

[1] = target: T2, Fatty acid-binding protein, liver (Homo sapiens, UniProt P07148); test: Binding affinity to recombinant human N-terminal His6 and Avi-tagged FABP1 expressed in Escherichia coli NEB cells by surface plasmon resonance method
T2 sequence (P07148 whole entry): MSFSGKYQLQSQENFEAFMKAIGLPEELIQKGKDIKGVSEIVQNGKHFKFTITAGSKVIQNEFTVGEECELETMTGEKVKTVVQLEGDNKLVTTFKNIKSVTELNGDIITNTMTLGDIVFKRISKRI

| Structure (SMILES) | Kd (Gastrotropin) [µM] | Kd [1] [µM] |
| --- | --- | --- |
| Nc1nc2ccc(C(=O)c3ccccc3)cc2[nH]1 | 13 |  |
| Cc1cc2nc(N)[nH]c2cc1C |  | > 1000 |
| c1ccc(CNc2ccccn2)cc1 | 300 | 300 |
| Cc1nc(Cn2cnc3cc(C)c(C)cc32)cs1 | 400 |  |
| Cc1ccccc1CN1CCN(C(=O)c2cccnc2)CC1 | 290 | > 1000 |
| Nc1c2c(nc3ccccc13)CCCC2 [TACRINE] | 200 | 900 |

Continued by falling Kd (Gastrotropin), values first:

| Kd (Gastrotropin) [µM] | Kd [1] [µM] | Structure (SMILES) |
| --- | --- | --- |
| 300 | > 1000 | CS(=O)(=O)N1CCCC(NCc2ccccc2)CC1 (centres undefined) |
| 210 | 400 | O=C(c1ccco1)N1CCN(Cc2ccc3c(c2)OCO3)CC1 |
| 210 | > 1000 | CN1CCN(C(=O)c2ccc(=O)n(Cc3ccc(Cl)cc3)c2)CC1 |
| 80 | > 1000 | COC(=O)c1cscc1-c1ccc(C(=O)N2CCOCC2)o1 |
| 40 | > 1000 | O=C1NCCOc2ccc(F)cc21 |
